# According to patent publication US20260237072A1, “FUNCTIONAL RESPIRATORY IMAGING ANALYSIS OF SERALUTINIB FOR THE TREATMENT OF PULMONARY ARTERIAL HYPERTENSION (PAH)” (GB002, INC., priority 2023, published 2026):
# “And” between values parts separate entries of the source, which are not always exact repeats. Equal entries are not always repeated.
# Columns and labels:
# [1] = tested on: PAH patients; assay: Clinical study: change from baseline to week 24 in clinical parameters (PVR, MPAP, PAC, 6MWD, NTproBNP); format: in vivo, human; set-up: MPAP Change / 6MWD change / NTproBNP change: unit not given here
# Protocol: (§1) A clinical study was undertaken to examine the effect of Seralutinib on pulmonary arterial blood vessel volume distribution in PAH patients. Seralutinib was administered twice daily (BID) for 24 weeks, via dry powder inhalation, to PAH patients (WHO Group I, functional class II or III). Thin-section, volumetric non-contrast chest CTs were obtained (at baseline and week 24, minimum of 64 slices), followed by automated pulmonary vascular segmentation to evaluate the reverse remodeling potential of seralutinib.
# (§2) Baseline and Week 24 CTs were obtained in 19 subjects (7 receiving seralutinib, 12 receiving placebo), mean age 49±12 years, 18 were female, as presented in Tables 1 and 2. All subjects were receiving two or three approved PAH-specific medications.
# (§3) Case study 2 was of a person with WHO functional class II idiopathic PAH+severe rheumatoid arthritis receiving approved PAH Triple Therapy (ERA+PDE-5i+PRA).
# [2] = tested on: PAH patients; assay: Clinical study: functional respiratory imaging (chest CT, automated pulmonary vascular segmentation) of pulmonary arterial blood vessel volume distribution; format: in vivo, human
# Protocol: as §1
# From the scans, paired inspiratory-expiratory high-resolution non-contrast computer tomography studies were performed and the lobar tissue, airways and vasculature were reconstructed. Vasculature volumes are provided as a total blood volume (BV), and as BVX values, which divide the pulmonary blood volume depending on the size vessel in which the blood is contained, wherein:
# Blood vessel volumes (BVV) of pulmonary arteries with a CSA<5 mm^2 (BV5A) and >10 mm^2 (BV10A) were calculated, and the BV5A to BV10A ratio (BV510ARATIO) was used to express relative redistribution of pulmonary arterial blood vessel volume. Linear regression was used to model the treatment effect.
# as §2, §3
# [3] = individual PAH patient, baseline to week 24, BID dry powder inhalation
# [4] = Case Study 2, baseline to week 24, lung images
# [5] = treatment effect vs placebo, week 24, linear regression
smiles,measurement,setting,value
"COc1ccc(-c2cncc(N[C@@H](C)c3cccc(NC(=O)c4cncc(C)c4)c3)n2)cc1OC [Seralutinib, N-{3-[(1S)-1-{[6-(3,4-dimethoxyphenyl)pyrazin-2-yl]amino}ethyl]phenyl}-5-methylpyridine-3-carboxamide]",PVR coincident with arterial volume shifts,"[1]; Case Study 2, baseline to week 24",Improvement
same,6MWD change,"[1]; Case Study 2, week 24",−48
same,NTproBNP change,"[1]; Case Study 2, week 24",41
same,PVR Change,"[1]; Case Study 2, week 24, PVR baseline 408",−159
same,MPAP Change,[1]; [3],−4 and −3 (2×) and −8 and 3 and −2
same,PAC Change (pulmonary arterial compliance),[1]; [3],0.65 and 0.24 and 0.85 and 0.31 and 0.11 and 0.32
same,PVR Change,[1]; [3],−159 and −11 and −52 and −235 and −139 and −171
same,BV5A/BV10A ratio,[2]; [4],Increase
same,Decrease in BV10APRA,[2]; [4],8%
same,Increase in BV5APRA,[2]; [4],6%
same,BV5A PRA (%)*,"[2]; Case Study 2, week 24",+5.6%
same,BV10A PRA (%)*,"[2]; Case Study 2, week 24",−7.7%
same,BV510A RATIO,"[2]; Case Study 2, week 24",+2.5
same,redistribution of pulmonary arterial blood vessel volume to more distal vessels,"[2]; subjects with PAH on dual or triple PAH therapies, seralutinib added",significant redistribution
same,BV5APRA regression model effect estimate,[2]; [5],2.625
same,BV5PR regression model effect estimate,[2]; [5],1.835
same,BV10APRA regression model effect estimate,[2]; [5],−2.711
same,BV10PR regression model effect estimate,[2]; [5],−2.180
same,BV510RATIO regression model effect estimate,[2]; [5],0.843
same,BV510ARATIO regression model effect estimate,"[2]; treatment effect vs placebo, week 24, linear regression, 7 seralutinib, 12 placebo",0.845
same,least squares mean difference value of the BV510ARatio,"[2]; vs placebo, 95% CI 0.105, 1.585, p-value 0.028",0.845
same,BV510A Ratio in the seralutinib group compared to placebo,"[2]; week 24, p=0.028",significantly higher
